Target: T1, butyrylcholinesterase (BuChE) (Equus caballus, UniProt P81908)
T1 construct: gene BCHE
Assay: Ellman colorimetric assay with equine serum BuChE, concentration-response
Type: biochemical

T1 sequence (P81908 whole entry): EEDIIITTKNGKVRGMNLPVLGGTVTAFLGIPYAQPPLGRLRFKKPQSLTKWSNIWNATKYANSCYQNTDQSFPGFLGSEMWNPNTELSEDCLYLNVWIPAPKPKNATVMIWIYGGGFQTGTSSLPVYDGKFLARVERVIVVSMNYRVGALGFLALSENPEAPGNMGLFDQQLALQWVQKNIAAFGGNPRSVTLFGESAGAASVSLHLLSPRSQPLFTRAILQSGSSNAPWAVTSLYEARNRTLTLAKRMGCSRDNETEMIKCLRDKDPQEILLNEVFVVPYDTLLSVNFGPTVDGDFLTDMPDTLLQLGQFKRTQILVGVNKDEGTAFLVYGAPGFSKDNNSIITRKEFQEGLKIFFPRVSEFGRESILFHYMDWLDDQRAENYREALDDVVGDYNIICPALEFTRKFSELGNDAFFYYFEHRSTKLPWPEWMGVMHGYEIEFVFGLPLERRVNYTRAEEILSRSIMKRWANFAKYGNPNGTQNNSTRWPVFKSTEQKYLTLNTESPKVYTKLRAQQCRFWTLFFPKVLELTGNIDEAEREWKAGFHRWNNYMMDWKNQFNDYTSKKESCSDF

In the case of `C[C@H](Cc1cc2c(c(C(N)=O)c1)N(CCCO)CC2)NCCOc1ccccc1OCC(F)(F)F` [silodosin], the IC50 is reported as 3.02 ± 0.05 µM.
